According to patent publication US9815842B2, “Pyrazolo pyrimidine derivatives and their use as MALT1 inhibitors” (Novartis AG, priority 2014, dated 2017):

Key:
[1] = molecular target: C-domain of MALT1 (amino acids 329-824) (Homo sapiens (Human), UniProt Q9UDY8); test: MALT1 biochemical assay (fluorescence lifetime enzyme activity assay); details: 60 min pre-incubation, 2.5 nM enzyme, 1 μM peptide substrate
[2] = test system: Human IL2 promoter; test: Human IL2 promoter reporter gene assay (RGA) in Jurkat cells; format: cell-based; details: Jurkat clone K22 290_H23, anti-CD28 mAb + PMA stimulation 5.5 h
Procedure, shortened: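 Transfected Jurkat clone K22 290_H23 cells were pre-incubated with compounds 30 min at 37 °C, then stimulated 5.5 h with anti-CD28 mAb (15E8, 3 μg/ml) plus PMA (1 μg/ml). IL2-promoter reporter activity was read as BriteLitePlus bioluminescence.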

[3] = molecular target: cIAP2-MALT1 fusion protein (Homo sapiens, UniProt Q9UDY8); test: cell-based
Chain of cIAP2-MALT1 fusion protein (Q9UDY8 2-824 limits assumed): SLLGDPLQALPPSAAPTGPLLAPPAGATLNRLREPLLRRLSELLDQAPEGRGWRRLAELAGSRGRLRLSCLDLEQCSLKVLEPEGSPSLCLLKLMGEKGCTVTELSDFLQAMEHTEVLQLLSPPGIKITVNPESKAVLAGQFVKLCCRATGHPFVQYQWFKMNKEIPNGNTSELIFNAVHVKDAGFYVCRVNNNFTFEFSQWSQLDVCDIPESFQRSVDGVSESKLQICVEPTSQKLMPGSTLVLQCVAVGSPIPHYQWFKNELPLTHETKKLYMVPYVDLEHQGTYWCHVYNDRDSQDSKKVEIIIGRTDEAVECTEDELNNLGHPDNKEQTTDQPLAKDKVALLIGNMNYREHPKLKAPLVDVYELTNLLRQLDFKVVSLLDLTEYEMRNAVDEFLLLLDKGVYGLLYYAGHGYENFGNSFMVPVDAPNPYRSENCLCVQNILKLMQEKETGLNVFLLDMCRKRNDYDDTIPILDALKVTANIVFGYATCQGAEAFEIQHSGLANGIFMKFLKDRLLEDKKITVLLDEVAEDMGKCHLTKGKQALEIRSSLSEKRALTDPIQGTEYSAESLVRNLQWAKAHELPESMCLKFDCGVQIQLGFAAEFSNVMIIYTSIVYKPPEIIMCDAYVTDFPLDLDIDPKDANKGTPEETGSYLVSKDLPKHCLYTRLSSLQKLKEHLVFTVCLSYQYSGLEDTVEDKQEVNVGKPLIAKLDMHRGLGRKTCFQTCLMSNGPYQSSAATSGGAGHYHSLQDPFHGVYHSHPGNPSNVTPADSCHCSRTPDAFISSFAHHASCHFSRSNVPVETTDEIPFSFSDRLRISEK

Chain of C-domain of MALT1 (amino acids 329-824) (Q9UDY8 329-824): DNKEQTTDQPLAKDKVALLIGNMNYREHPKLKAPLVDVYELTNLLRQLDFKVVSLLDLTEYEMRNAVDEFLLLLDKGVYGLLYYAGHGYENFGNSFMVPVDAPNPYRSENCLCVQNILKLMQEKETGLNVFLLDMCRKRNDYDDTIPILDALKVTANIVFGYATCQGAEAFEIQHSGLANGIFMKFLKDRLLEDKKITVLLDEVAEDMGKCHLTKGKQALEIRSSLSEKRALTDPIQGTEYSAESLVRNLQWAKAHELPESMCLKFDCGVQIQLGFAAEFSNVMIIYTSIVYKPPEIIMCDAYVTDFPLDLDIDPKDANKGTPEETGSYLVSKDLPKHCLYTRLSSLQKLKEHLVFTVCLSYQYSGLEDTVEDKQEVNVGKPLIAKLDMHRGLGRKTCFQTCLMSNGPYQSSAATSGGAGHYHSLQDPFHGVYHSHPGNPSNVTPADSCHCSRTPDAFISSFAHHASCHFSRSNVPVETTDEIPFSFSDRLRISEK

SMILES	IC50 [1] [nM]	IC50 [2] [nM]	IC50 [3] [nM]
COC(c1c(NC(=O)Nc2ccnc(C(F)(F)F)c2)cnc2cc(Cl)nn12)C1CCOCC1 (stereo not drawn) [Example 90, 1-(2-chloro-7-(methoxy(tetrahydro-2H-pyran-4-yl)methyl)pyrazolo[1,5-a]pyrimidin-6-yl)-3-(2-(trifluoromethyl)pyridin-4-yl)urea]	97	927	696
COCC1(c2c(NC(=O)Nc3cnc(-n4nccn4)c(Cl)c3)cnc3cc(Cl)nn23)CC1 [Example 76, 1-(5-chloro-6-(2H-1,2,3-triazol-2-yl)pyridin-3-yl)-3-(2-chloro-7-(1-(methoxymethyl)cyclopropyl)pyrazolo[1,5-a]pyrimidin-6-yl)urea]	6	28	84
COc1ncc(NC(=O)Nc2cnc3cc(C)nn3c2C2(C)CC2)cc1Cl [Example 73, 1-(5-chloro-6-methoxypyridin-3-yl)-3-(2-methyl-7-(1-methylcyclopropyl)pyrazolo[1,5-a]pyrimidin-6-yl)urea]	12	91	163
CO[C@H](c1c(NC(=O)Nc2ccnc(C(F)(F)F)c2)cnc2cc(Cl)nn12)C(C)C [Example 75, (S)-1-(2-chloro-7-(1-methoxy-2-methylpropyl)pyrazolo[1,5-a]pyrimidin-6-yl)-3-(2-(trifluoromethyl)pyridin-4-yl)urea]	5	72	100
COCC1(c2c(NC(=O)Nc3cnc(-n4nccn4)c(Cl)c3)cnc3cc(C)nn23)CC1 [Example 78, 1-(5-chloro-6-(2H-1,2,3-triazol-2-yl)pyridin-3-yl)-3-(7-(1-(methoxymethyl)cyclopropyl)-2-methylpyrazolo[1,5-a]pyrimidin-6-yl)urea]	21	76	159

Results, then the compound that gave them:

IC50 [1] [nM]	IC50 [2] [nM]	IC50 [3] [nM]	SMILES
5	14	79	CO[C@@H](C)c1c(NC(=O)Nc2cnc(-n3nccn3)c(Cl)c2)cnc2cc(C)nn12 [Example 71, (S)-1-(5-chloro-6-(2H-1,2,3-triazol-2-yl)pyridin-3-yl)-3-(7-(1-methoxyethyl)-2-methylpyrazolo[1,5-a]pyrimidin-6-yl)urea]
5	58	119	COC[C@H](OC)c1c(NC(=O)Nc2cnc(-n3nccn3)c(Cl)c2)cnc2cc(Cl)nn12 [Example 126, (R)-1-(5-chloro-6-(2H-1,2,3-triazol-2-yl)pyridin-3-yl)-3-(2-chloro-7-(1,2-dimethoxyethyl)pyrazolo[1,5-a]pyrimidin-6-yl)urea]
3	67	49	COC(C)(C)c1c(NC(=O)Nc2cnc(-n3nccn3)c(Cl)c2)cnc2cc(Cl)nn12 [Example 14, 1-(5-chloro-6-(2H-1,2,3-triazol-2-yl)pyridin-3-yl)-3-(2-chloro-7-(2-methoxypropan-2-yl)pyrazolo[1,5-a]pyrimidin-6-yl)urea]
3	207	149	COc1ncc(NC(=O)Nc2cnc3cc(Cl)nn3c2C(C)C)cc1Cl [Example 18, 1-(5-chloro-6-methoxypyridin-3-yl)-3-(2-chloro-7-isopropylpyrazolo[1,5-a]pyrimidin-6-yl)urea]
2	32	30	CO[C@H](c1c(NC(=O)Nc2cnc(-n3nccn3)c(Cl)c2)cnc2cc(Cl)nn12)C(C)C [Example 74, (S)-1-(5-chloro-6-(2H-1,2,3-triazol-2-yl)pyridin-3-yl)-3-(2-chloro-7-(1-methoxy-2-methylpropyl)pyrazolo[1,5-a]pyrimidin-6-yl)urea]
3	245	99	CC(C)c1c(NC(=O)Nc2ccc(-n3nccn3)c(Cl)c2)cnc2cc(Cl)nn12 [Example 20, 1-(3-chloro-4-(2H-1,2,3-triazol-2-yl)phenyl)-3-(2-chloro-7-isopropylpyrazolo[1,5-a]pyrimidin-6-yl)urea]
